Source: patent US6399618B1, “Compositions and methods for modulating sexual activity” (priority 1997, dated 2002)
Structures can show the parent of a compound that is named as a salt. Marks after values point to notes of the source that are not given here.

Columns and labels:
male primates = test: Primate sexual behavior, isolated observation study; type: in vivo, Macaca fascilaris; settings: for # of behavioral Purse Lip Gesture / # of behavioral Yawning / Grade 0 (glans hidden from view) / Grade 1 (glans clearly visible) / Grade 2 (penis extended) / Grade 3 (full erection) / Grade 4 (erection with masturbation) / Grade 5 (erection with masturbation and ejaculation): isolation, 1 hour, n=6
Procedure: Adult male Macaca fascilaris (3.8-8 kg, n=6) were injected (0.1-10.0 mg/kg; ip; 0.5 mL/kg body weight) with either saline or compound XVIb and observed 10 minutes later for behavioral responses and locomotion for 1 hour. Monkeys used for testing were injected and observed in separate locations remote from housing environment. Each monkey received a dose of XVIb at 72 hour intervals.
In Table 4, the effect of compound XVIb on erectile responses is reported for male primates observed in isolation. Data are expressed as mean (sem, standard error of measurements) for 6 test animals. Penile responses were scored every 10 seconds for 1 hour according to the following scale: Grade 0=glans hidden from view, Grade 1=glans clearly visible, Grade 2=penis extended, Grade 3=full erection, Grade 4=erection with masturbation, Grade 5=erection with masturbation and ejaculation. In Table 4, data marked with an asterisk “*” indicate a significant difference from saline as determined by repeated measures ANOVA and Dunnetts test for multiple comparisons (α<0.05). The data in Table 4 are reported as % genital observations.

[1] = tested on: noradrenaline pre-contracted rabbit CC; test: Direct action on penile erection: tone of corpus cavernosal muscle strips in organ bath; settings: concentration from 10^-8 M to 10^-4 M; n=6
Procedure: Corpus cavernosal (CC) muscle strips were prepared from penises obtained from rabbit (n=6). CC strips were dissected free from tunica albungia and mounted in 10 or 25 mL organ baths containing Tyrode solution saturated with 95%O2/5% CO2 mixture.

SMILES: CN1CCN(C(=O)Cc2ccc3ccccc3c2)CC1 [Compound XVIb, 1-Methyl-4(2-naphthaleneacetyl)piperazine monohydrochloride]
- # of behavioral Purse Lip Gesture (male primates; 0.1 mg/kg ip): 5.8 ± 3.9 #
- # of behavioral Yawning (male primates; 0.1 mg/kg ip): 8.8 ± 4.5 #
- Grade 0 (glans hidden from view) (male primates; 0.1 mg/kg ip): 81.8 ± 8.2 % genital observations
- Grade 1 (glans clearly visible) (male primates; 0.1 mg/kg ip): 17.8 ± 7.9 % genital observations
- Grade 2 (penis extended) (male primates; 0.1 mg/kg ip): 0.4 ± 0.3 % genital observations
- Grade 3 (full erection) (male primates; 0.1 mg/kg ip): 0 ± 0 % genital observations
- Grade 4 (erection with masturbation) (male primates; 0.1 mg/kg ip): 0 ± 0 % genital observations
- Grade 5 (erection with masturbation and ejaculation) (male primates; 0.1 mg/kg ip): 0 ± 0 % genital observations
- # of behavioral Purse Lip Gesture (male primates; 0.3 mg/kg ip): 10.2 ± 3.9 #
- # of behavioral Yawning (male primates; 0.3 mg/kg ip): 11.7 ± 3.8 #
- Grade 0 (glans hidden from view) (male primates; 0.3 mg/kg ip): 67.3 ± 12.2 % genital observations
- Grade 1 (glans clearly visible) (male primates; 0.3 mg/kg ip): 32.8 ± 11.5 % genital observations
- Grade 2 (penis extended) (male primates; 0.3 mg/kg ip): 0.5 ± 0.5 % genital observations
- Grade 3 (full erection) (male primates; 0.3 mg/kg ip): 0 ± 0 % genital observations
- Grade 4 (erection with masturbation) (male primates; 0.3 mg/kg ip): 0 ± 0 % genital observations
- Grade 5 (erection with masturbation and ejaculation) (male primates; 0.3 mg/kg ip): 0 ± 0 % genital observations
- # of behavioral Purse Lip Gesture (male primates; 1.0 mg/kg ip): 7.5 ± 3.4 #
- # of behavioral Yawning (male primates; 1.0 mg/kg ip): 11.3 ± 2.5 #
- Grade 0 (glans hidden from view) (male primates; 1.0 mg/kg ip): 72.0 ± 12.0 % genital observations
- Grade 1 (glans clearly visible) (male primates; 1.0 mg/kg ip): 26.6 ± 10.6 % genital observations
- Grade 2 (penis extended) (male primates; 1.0 mg/kg ip): 1.4 ± 1.4 % genital observations
- Grade 3 (full erection) (male primates; 1.0 mg/kg ip): 0 ± 0 % genital observations
- Grade 4 (erection with masturbation) (male primates; 1.0 mg/kg ip): 0 ± 0 % genital observations
- Grade 5 (erection with masturbation and ejaculation) (male primates; 1.0 mg/kg ip): 0 ± 0 % genital observations
- # of behavioral Purse Lip Gesture (male primates; 3.0 mg/kg ip): 14.0 ± 8.3 #
- # of behavioral Yawning (male primates; 3.0 mg/kg ip): 13 ± 3.4 #
- Grade 0 (glans hidden from view) (male primates; 3.0 mg/kg ip): 56.8 ± 7.8 % genital observations
- Grade 1 (glans clearly visible) (male primates; 3.0 mg/kg ip): 42.1 ± 8.3 % genital observations
- Grade 2 (penis extended) (male primates; 3.0 mg/kg ip): 1.7 ± 1.4 % genital observations
- Grade 3 (full erection) (male primates; 3.0 mg/kg ip): 0.3 ± 0.3 % genital observations
- Grade 4 (erection with masturbation) (male primates; 3.0 mg/kg ip): 0 ± 0 % genital observations
- Grade 5 (erection with masturbation and ejaculation) (male primates; 3.0 mg/kg ip): 0 ± 0 % genital observations
- # of behavioral Purse Lip Gesture (male primates; 10.0 mg/kg ip): 33 ± 14* #
- # of behavioral Yawning (male primates; 10.0 mg/kg ip): 14.0 ± 4.0 #
- Grade 0 (glans hidden from view) (male primates; 10.0 mg/kg ip): 24.5 ± 7.6 % genital observations
- Grade 1 (glans clearly visible) (male primates; 10.0 mg/kg ip): 72.1 ± 7.7* % genital observations
- Grade 2 (penis extended) (male primates; 10.0 mg/kg ip): 2.5 ± 1.0 % genital observations
- Grade 3 (full erection) (male primates; 10.0 mg/kg ip): 0.9 ± 0.6 % genital observations
- Grade 4 (erection with masturbation) (male primates; 10.0 mg/kg ip): 0 ± 0 % genital observations
- Grade 5 (erection with masturbation and ejaculation) (male primates; 10.0 mg/kg ip): 0 ± 0 % genital observations
- grade 1 penile erections (in words) (male primates; 0.1-10 mg/kg, primates observed in isolation, significance only at the highest dose): dose dependently (0.1-10 mg/kg) increased grade 1 penile erections
- Advanced grades of penile erection (grades 2-5) (in words) (male primates; any dose (0.1-10 mg/kg)): not significantly affected at any dose
- effect on tone of noradrenaline pre-contracted rabbit CC [1]: failed to reduce tone
